Data reported in ChEMBL document CHEMBL1201862, “PubChem BioAssay data set” (2004).
The source made the active and inactive calls.

Key:
[1] = target: T1, Apoptotic protease-activating factor 1 (Homo sapiens, UniProt O14727); test: SAR analysis of small molecule Activators of Apaf-1 in a Fluorescent assay.; type: functional; details: read-out: EC50_Mean;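 also: caspase-3 cleavage of fluorogenic Rh110 DEVD substrate downstream of apoptosome activation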
T1 sequence (O14727 whole entry): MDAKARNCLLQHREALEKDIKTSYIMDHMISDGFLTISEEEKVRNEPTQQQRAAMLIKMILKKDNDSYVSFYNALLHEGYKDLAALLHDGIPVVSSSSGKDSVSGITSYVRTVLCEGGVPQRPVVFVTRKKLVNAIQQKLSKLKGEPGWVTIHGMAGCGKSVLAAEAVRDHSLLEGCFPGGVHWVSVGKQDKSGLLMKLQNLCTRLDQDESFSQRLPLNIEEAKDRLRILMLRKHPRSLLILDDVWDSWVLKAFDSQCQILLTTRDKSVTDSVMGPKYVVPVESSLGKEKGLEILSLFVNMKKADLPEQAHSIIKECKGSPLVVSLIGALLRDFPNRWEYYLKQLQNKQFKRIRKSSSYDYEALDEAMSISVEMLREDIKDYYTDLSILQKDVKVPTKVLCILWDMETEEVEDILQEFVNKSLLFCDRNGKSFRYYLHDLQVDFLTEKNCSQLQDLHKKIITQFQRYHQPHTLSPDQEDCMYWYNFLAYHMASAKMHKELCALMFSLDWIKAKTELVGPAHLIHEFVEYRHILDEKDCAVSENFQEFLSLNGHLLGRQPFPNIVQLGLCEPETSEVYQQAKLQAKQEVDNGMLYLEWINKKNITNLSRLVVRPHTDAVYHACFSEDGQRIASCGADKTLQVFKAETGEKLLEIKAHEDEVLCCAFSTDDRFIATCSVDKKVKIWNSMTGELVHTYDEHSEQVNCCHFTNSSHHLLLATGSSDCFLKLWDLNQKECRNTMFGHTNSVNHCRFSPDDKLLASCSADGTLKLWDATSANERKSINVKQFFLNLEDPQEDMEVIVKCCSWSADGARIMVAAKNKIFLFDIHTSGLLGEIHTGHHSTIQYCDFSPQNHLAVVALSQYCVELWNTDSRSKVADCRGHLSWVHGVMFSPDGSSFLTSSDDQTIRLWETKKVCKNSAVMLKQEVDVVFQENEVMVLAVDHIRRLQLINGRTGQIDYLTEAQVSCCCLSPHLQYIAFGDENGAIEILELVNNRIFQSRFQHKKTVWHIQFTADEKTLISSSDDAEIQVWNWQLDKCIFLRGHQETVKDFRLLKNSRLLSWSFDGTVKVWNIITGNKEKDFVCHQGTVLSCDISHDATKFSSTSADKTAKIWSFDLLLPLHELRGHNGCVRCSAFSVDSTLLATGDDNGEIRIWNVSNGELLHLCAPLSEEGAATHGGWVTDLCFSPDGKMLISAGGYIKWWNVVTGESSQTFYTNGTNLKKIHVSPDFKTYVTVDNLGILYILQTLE

[2] = target: T2, ATP-dependent translocase ABCB1 (Homo sapiens, UniProt P08183); test: ABCB1 efflux inhibitor potency, dose response, Jurkat-DNR cells, JC-1, flow cytometry, set 2 (AID 504569); type: functional; details: read-out: EC50_MICROM_;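 also: potency of pump inhibitors that raise cellular JC-1 green fluorescence up to the nicardipine level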
[3] = target: T2, ATP-dependent translocase ABCB1; test: ABCG2 efflux pump inhibitor potency, dose response, Ig-MXP3 cells, JC-1, flow cytometry, set 2 (AID 504566); type: functional; details: read-out: EC50_MICROM_;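 also: flow cytometry median green fluorescence of retained JC-1 dye; potency of efflux pump inhibition measured as rising substrate retention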
[4] = target: T3, Low molecular weight phosphotyrosine protein phosphatase (Homo sapiens, UniProt P24666); type: functional; details: read-out: IC50_Mean;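 also: Dose-response confirmation assay measuring inhibition of LMPTP enzyme activity by fluorescence intensity read-out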
T3 sequence (P24666 whole entry): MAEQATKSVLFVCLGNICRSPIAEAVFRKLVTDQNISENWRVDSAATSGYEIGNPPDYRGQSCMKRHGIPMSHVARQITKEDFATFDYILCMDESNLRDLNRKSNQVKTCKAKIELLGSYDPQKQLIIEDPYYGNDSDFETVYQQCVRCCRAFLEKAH

[5] = target: ADP-ribosylation factor GTPase-activating protein 1 (Rattus norvegicus, UniProt Q62848); test: Fluorescence polarization-based biochemical high throughput dose response screening assay to identify inhibitors of ADP-ribosylation factor GTPase activating protein 1 (ARFGAP1).; type: functional
[6] = Counterscreen for activators of the function of SWI/SNF related, matrix associated, actin dependent regulator of chromatin, subfamily a, member 2 (SMARCA2, BRM): Luminescence-based cell-based high throughput dose response assay to identify non-selective compounds using the VP16 reporter assay.; type: functional
[7] = target: T4, DNA repair protein RAD52 homolog (Homo sapiens, UniProt P43351); type: functional, biochemical
T4 sequence (P43351 whole entry): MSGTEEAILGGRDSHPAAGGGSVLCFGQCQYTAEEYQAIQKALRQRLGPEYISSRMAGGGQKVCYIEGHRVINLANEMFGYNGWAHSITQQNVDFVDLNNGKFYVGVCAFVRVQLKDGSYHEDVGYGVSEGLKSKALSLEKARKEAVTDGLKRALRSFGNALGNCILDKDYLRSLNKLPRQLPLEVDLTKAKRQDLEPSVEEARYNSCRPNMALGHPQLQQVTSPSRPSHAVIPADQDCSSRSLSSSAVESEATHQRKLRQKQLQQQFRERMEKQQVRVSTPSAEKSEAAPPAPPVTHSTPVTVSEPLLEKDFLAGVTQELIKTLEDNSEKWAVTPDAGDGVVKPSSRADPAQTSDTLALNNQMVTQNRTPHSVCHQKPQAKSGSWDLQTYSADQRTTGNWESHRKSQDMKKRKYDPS

[8] = target: SWI/SNF-related matrix-associated actin-dependent regulator of chromatin subfamily A member 2 (Homo sapiens, UniProt P51531); test: Luminescence-based cell-based high throughput dose response assay to identify activators of the function of SWI/SNF related, matrix associated, actin dependent regulator of chromatin, subfamily a, member 2 (SMARCA2, BRM).; type: functional
[9] = target: DNA (cytosine-5)-methyltransferase 1 (Homo sapiens, UniProt P26358); test: DNMT1 methyltransferase inhibitors, confirmation, biochemical, fluorescent molecular beacon (AID 602386); type: functional
[10] = target: T5, DNA repair and recombination protein RAD54-like (Homo sapiens, UniProt Q92698); test: inhibitors of human RAD54 branch migration, confirmation, biochemical, fluorescence, cherry-picked samples, dose series (AID 651657); type: functional
T5 sequence (Q92698 whole entry): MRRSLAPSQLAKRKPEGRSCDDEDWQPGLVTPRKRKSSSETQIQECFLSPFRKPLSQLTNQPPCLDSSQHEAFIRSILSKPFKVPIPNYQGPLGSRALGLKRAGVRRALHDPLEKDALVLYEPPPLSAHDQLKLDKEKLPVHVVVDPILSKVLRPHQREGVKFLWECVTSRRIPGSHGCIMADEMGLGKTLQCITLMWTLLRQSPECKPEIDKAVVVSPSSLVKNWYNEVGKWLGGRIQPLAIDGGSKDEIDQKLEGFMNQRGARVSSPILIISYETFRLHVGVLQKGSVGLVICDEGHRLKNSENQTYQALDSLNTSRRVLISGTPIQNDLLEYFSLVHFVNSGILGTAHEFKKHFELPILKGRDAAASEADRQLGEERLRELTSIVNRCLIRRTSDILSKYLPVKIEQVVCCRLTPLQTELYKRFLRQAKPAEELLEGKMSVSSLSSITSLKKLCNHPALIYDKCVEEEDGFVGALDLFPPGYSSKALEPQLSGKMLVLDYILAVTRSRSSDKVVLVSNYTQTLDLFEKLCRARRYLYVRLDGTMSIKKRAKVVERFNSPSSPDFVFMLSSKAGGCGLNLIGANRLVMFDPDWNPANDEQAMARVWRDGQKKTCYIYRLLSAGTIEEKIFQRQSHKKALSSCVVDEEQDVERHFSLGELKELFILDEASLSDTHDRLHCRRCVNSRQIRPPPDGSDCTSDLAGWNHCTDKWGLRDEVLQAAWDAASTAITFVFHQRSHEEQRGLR

[11] = DNA binding of candidate compounds, dose response, artefact control for RAD54 inhibitor project, biochemical, fluorescence polarization, cherry-pick (AID 651673); type: functional
[12] = MDA-MB-231 cell growth inhibition, dose response, cytotoxicity control for RAD54 inhibitor project, CellTiter-Glo luminescence, cherry-pick (AID 651692); type: functional, cell-based

T2 sequence (P08183 whole entry): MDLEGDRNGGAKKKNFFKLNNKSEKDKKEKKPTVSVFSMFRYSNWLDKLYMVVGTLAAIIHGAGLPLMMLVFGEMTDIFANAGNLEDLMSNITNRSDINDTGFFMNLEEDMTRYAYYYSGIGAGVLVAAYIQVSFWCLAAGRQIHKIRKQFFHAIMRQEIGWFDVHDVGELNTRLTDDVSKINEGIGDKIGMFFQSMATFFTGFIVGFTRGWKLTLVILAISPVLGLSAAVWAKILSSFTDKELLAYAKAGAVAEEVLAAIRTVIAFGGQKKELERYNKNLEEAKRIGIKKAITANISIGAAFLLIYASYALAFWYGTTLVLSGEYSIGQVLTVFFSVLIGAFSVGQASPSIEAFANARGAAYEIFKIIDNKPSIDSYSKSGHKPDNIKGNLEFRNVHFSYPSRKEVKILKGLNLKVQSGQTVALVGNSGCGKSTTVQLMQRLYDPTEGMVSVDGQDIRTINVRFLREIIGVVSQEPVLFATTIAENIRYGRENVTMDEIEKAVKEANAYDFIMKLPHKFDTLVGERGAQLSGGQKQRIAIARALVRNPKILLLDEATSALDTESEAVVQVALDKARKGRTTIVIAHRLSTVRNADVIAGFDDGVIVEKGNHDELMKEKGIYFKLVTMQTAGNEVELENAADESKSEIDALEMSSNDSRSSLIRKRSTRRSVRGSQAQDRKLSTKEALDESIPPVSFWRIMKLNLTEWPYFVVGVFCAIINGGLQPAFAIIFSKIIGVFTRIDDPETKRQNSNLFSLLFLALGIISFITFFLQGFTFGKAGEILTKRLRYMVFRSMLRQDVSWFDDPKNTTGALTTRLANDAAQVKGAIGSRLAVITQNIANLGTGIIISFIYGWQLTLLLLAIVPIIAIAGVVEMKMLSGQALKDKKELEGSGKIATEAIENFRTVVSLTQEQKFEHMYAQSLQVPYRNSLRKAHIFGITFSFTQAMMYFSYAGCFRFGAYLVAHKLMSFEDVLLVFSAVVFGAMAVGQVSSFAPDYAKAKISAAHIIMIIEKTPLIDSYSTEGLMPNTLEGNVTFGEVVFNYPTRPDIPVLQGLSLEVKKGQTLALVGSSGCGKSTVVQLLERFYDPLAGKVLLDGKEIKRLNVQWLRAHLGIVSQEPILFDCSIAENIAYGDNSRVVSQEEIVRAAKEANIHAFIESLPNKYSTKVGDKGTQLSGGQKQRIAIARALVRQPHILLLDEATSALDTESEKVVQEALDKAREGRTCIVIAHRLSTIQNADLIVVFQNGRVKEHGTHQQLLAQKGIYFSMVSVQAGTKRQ
Chain of DNA (cytosine-5)-methyltransferase 1 (P26358 whole entry): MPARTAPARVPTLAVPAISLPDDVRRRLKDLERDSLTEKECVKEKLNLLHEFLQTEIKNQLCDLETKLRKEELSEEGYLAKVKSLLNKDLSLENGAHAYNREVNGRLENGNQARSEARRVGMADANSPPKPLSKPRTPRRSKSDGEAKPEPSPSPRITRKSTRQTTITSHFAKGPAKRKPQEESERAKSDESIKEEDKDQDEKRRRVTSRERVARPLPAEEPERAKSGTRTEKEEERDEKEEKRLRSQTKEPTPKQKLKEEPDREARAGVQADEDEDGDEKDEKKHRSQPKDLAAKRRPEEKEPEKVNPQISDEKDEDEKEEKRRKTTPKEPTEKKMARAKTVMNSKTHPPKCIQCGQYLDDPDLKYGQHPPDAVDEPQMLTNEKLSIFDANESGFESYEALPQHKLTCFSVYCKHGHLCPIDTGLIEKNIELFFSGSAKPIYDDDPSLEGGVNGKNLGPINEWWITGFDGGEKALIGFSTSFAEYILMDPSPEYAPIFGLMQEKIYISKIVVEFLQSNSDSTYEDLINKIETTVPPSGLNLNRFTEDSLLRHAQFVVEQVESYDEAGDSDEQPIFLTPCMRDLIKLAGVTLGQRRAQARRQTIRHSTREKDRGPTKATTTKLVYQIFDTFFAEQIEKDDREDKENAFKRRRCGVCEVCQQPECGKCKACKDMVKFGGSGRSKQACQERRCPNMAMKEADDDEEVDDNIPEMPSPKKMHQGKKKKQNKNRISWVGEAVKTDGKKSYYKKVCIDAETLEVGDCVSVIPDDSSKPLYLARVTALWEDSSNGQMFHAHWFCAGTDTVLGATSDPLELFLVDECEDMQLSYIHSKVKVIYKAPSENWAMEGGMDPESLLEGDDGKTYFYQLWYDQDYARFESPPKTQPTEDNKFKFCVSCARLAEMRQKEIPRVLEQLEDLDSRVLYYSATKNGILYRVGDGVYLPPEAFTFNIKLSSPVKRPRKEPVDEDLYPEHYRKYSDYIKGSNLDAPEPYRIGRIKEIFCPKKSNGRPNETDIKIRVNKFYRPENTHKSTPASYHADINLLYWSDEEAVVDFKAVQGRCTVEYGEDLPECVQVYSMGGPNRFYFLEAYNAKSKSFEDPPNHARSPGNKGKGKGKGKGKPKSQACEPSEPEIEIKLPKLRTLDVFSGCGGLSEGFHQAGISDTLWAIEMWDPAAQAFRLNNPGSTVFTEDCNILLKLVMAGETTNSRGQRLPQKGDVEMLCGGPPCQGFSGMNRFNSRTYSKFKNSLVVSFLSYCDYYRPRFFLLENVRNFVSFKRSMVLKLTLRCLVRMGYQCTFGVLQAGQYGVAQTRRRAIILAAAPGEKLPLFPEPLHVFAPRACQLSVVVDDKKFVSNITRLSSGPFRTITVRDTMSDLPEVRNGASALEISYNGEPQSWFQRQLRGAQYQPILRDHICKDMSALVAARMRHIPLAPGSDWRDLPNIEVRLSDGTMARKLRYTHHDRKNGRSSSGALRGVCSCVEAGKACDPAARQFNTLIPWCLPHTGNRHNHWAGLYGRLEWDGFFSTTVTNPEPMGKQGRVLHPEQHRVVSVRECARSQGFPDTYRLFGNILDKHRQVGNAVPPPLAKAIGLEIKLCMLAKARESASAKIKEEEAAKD
Chain of SWI/SNF-related matrix-associated actin-dependent regulator of chromatin subfamily A member 2 (P51531 whole entry): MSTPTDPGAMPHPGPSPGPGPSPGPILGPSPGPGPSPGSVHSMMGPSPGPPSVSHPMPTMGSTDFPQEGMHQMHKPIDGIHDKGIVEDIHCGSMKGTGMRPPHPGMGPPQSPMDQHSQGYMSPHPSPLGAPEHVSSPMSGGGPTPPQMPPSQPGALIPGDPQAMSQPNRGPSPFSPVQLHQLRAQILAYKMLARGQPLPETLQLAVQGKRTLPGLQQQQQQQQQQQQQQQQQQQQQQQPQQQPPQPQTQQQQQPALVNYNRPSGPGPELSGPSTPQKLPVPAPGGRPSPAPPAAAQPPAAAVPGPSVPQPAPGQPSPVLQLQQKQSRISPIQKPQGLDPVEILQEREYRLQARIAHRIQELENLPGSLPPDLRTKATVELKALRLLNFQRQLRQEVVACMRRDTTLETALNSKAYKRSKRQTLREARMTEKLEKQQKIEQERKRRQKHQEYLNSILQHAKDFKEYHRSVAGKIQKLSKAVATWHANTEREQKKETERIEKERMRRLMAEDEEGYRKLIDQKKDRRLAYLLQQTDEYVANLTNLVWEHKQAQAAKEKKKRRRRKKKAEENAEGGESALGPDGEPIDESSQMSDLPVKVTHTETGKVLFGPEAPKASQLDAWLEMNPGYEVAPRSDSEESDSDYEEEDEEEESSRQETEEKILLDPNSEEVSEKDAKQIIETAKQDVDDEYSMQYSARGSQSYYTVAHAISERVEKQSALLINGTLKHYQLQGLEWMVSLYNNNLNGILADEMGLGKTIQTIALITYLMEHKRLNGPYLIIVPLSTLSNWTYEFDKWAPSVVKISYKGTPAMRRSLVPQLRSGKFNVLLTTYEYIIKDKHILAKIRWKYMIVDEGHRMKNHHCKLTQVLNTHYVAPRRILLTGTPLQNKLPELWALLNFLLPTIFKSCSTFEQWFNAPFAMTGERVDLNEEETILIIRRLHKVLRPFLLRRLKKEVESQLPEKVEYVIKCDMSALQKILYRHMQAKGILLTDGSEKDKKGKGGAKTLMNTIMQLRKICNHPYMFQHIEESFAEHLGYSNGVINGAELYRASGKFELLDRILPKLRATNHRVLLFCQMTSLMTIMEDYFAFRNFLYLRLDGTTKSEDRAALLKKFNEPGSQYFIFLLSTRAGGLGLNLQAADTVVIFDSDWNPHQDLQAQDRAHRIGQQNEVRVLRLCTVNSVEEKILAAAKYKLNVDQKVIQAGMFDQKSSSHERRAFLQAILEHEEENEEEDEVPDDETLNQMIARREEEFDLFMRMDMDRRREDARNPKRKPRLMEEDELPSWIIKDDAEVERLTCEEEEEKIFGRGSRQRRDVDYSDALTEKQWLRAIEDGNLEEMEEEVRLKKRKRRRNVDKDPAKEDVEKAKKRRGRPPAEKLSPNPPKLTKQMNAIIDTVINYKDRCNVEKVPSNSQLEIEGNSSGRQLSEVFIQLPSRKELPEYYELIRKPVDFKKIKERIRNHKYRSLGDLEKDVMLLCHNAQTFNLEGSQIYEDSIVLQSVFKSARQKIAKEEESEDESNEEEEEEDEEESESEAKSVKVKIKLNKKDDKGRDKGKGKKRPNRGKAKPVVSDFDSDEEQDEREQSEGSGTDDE
Chain of ADP-ribosylation factor GTPase-activating protein 1 (Q62848 whole entry): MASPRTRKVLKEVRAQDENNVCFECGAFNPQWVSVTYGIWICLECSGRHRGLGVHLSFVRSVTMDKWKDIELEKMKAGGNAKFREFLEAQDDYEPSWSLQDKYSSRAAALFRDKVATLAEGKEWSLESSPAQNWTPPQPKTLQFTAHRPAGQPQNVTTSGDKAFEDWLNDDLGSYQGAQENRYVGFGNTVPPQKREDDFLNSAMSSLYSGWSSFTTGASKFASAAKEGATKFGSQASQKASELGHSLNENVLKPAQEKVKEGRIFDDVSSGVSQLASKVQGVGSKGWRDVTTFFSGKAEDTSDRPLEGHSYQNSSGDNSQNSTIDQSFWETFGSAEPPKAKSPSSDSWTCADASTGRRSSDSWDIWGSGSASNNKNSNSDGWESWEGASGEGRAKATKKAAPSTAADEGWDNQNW

CCC(=O)N1CCc2cc(Br)c(S(=O)(=O)CCC(=O)Nc3cc(Cl)ccc3OC)cc21
EC50 [1]: > 100 µM (inactive)

COc1cccc(C(=O)N2CCN(c3cc(-c4ccccc4)nc4cc(-c5cccc(Cl)c5)nn34)CC2)c1
EC50 [2]: 2.22 µM (active)
EC50 [3]: 2.6 µM (active)

C/C(=N\NS(=O)(=O)c1ccc(Cl)c([N+](=O)[O-])c1)c1ccc(C)o1
IC50 [4]: 80 µM (inactive)

CCCOc1ccc(/C=N/NC(=O)c2ccc(Cn3cc([N+](=O)[O-])cn3)o2)cc1
IC50 [5]: 49 µM (inactive)

COc1ccc2nc(C)cc(Nc3ccc(N4CCN(C)CC4)cc3)c2c1
EC50 [6]: > 10.1 µM (inactive)
AC50 [7]: 1.27 µM (active)
EC50 [8]: > 3.38 µM (active)
IC50 [9]: 11.4 µM (active)
AC50 [10]: 2.45 µM (active)
AC50 [11]: 62 µM (active)
AC50 [12]: 52 µM (inactive)
